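Protocol summary: plate cells (96-well), add compound at 5 concentrations, incubate 48 h, interpolate endpoints linearly. GI50 = concentration required for 50% inhibition of growth.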 The source made the active and inactive calls. Cut-off read from the data, not from the text of the source: active = GI50 up to about 1.1 µM and inactive = higher.
Legend:
Test in all cases: inhibition of tumour cell growth, NCI panel, 48 h
[1] = system: SK-MEL-5
[2] = system: CCRF-CEM
[3] = system: SF-295
[4] = system: NCI-H23
[5] = system: CAKI-1
[6] = system: U-251
[7] = system: SK-OV-3
[8] = system: SK-MEL-2
[9] = system: HCT-15
[10] = system: COLO 205
[11] = system: SNB-19
[12] = system: OVCAR-4
[13] = system: TK-10
[14] = system: NCI-H226
[15] = system: HCT-116
[16] = system: EKVX
[17] = system: HT-29
[18] = system: OVCAR-8
[19] = system: A549
[20] = system: HCC 2998
[21] = system: UACC-257
[22] = system: K562
[23] = system: UACC-62
[24] = system: RXF 393
[25] = system: HOP-62
[26] = system: LXFL 529
[27] = system: RXF 631
[28] = system: M19-MEL
[29] = system: DLD-1
[30] = system: SN12C
[31] = system: RPMI-8226
[32] = system: 786-0
[33] = system: ACHN
[34] = system: SF-268
[35] = system: KM-20L2
[36] = system: UO-31
[37] = system: M14
[38] = system: NCI-H460
[39] = system: SR
[40] = system: OVCAR-5
[41] = system: SW-620
[42] = system: DMS-273
[43] = system: LOX IMVI
[44] = system: SK-MEL-28
[45] = system: KM12
[46] = system: HOP-18
[47] = system: HOP-92
[48] = system: NCI-H522
[49] = system: Malme-3M
[50] = system: OVCAR-3
[51] = system: MOLT-4
[52] = system: SNB-75
[53] = system: HL-60
[54] = system: SNB-78
[55] = system: SF-539
[56] = system: DMS-114
[57] = system: A498
[58] = system: IGROV-1

With `N#C/C(=C\c1ccc[nH]1)C(=O)c1ccccc1` as the molecule, how does the GI50 [1] read?
Its GI50 is > 100 µM (inactive).

What about the GI50 [2] of the same molecule?
Its GI50 is > 100 µM (inactive).

What about the GI50 [3] of the same molecule?
The GI50 was > 100 µM (inactive).

What about the GI50 [4] of the same molecule?
The GI50 was > 100 µM (inactive).

What about the GI50 [5] of the same molecule?
Its GI50 is > 100 µM (inactive).

And the GI50 [6]?
The GI50 was > 100 µM (inactive).

What about the GI50 [7] of the same molecule?
The GI50 was > 100 µM (inactive).

What about the GI50 [8] of the same molecule?
Its GI50 is > 100 µM (inactive).

What about the GI50 [9] of the same molecule?
Its GI50 is > 100 µM.

What about the GI50 [10] of the same molecule?
The GI50 was > 100 µM (inactive).

And the GI50 [11]?
The GI50 was > 100 µM (inactive).

And the GI50 [12]?
The GI50 was > 100 µM (inactive).

And the GI50 [13]?
The GI50 was > 100 µM (inactive).

What about the GI50 [14] of the same molecule?
Its GI50 is > 100 µM (inactive).

What about the GI50 [15] of the same molecule?
Its GI50 is > 100 µM (inactive).

What about the GI50 [16] of the same molecule?
Its GI50 is > 100 µM (inactive).

And the GI50 [17]?
The GI50 was > 100 µM (inactive).

And the GI50 [18]?
The GI50 was > 100 µM (inactive).

What about the GI50 [19] of the same molecule?
The GI50 was > 100 µM (inactive).

What about the GI50 [20] of the same molecule?
Its GI50 is > 100 µM (inactive).

And the GI50 [21]?
Its GI50 is > 100 µM (inactive).

And the GI50 [22]?
The GI50 was > 100 µM (inactive).

And the GI50 [23]?
The GI50 was > 100 µM (inactive).

And the GI50 [24]?
The GI50 was 58.9 µM (inactive).

What about the GI50 [25] of the same molecule?
Its GI50 is > 100 µM (inactive).

And the GI50 [26]?
The GI50 was > 100 µM (inactive).

And the GI50 [27]?
The GI50 was > 100 µM (inactive).

What about the GI50 [28] of the same molecule?
Its GI50 is > 100 µM (inactive).

And the GI50 [29]?
Its GI50 is > 100 µM (inactive).

And the GI50 [30]?
The GI50 was > 100 µM (inactive).

What about the GI50 [31] of the same molecule?
Its GI50 is > 100 µM (inactive).

And the GI50 [32]?
The GI50 was > 100 µM (inactive).

And the GI50 [33]?
Its GI50 is > 100 µM (inactive).

And the GI50 [34]?
The GI50 was > 100 µM (inactive).

And the GI50 [35]?
Its GI50 is > 100 µM (inactive).

What about the GI50 [36] of the same molecule?
Its GI50 is > 100 µM (inactive).

And the GI50 [37]?
Its GI50 is > 100 µM (inactive).

And the GI50 [38]?
Its GI50 is > 100 µM (inactive).

And the GI50 [39]?
Its GI50 is > 100 µM (inactive).

What about the GI50 [40] of the same molecule?
Its GI50 is > 100 µM (inactive).

What about the GI50 [41] of the same molecule?
The GI50 was > 100 µM (inactive).

What about the GI50 [42] of the same molecule?
Its GI50 is > 100 µM (inactive).

And the GI50 [43]?
Its GI50 is > 100 µM (inactive).

And the GI50 [44]?
Its GI50 is > 100 µM (inactive).

What about the GI50 [45] of the same molecule?
Its GI50 is > 100 µM (inactive).

What about the GI50 [46] of the same molecule?
The GI50 was 70.3 µM (inactive).

And the GI50 [47]?
Its GI50 is 70.8 µM (inactive).

And the GI50 [48]?
The GI50 was > 100 µM (inactive).

And the GI50 [49]?
The GI50 was > 100 µM (inactive).

What about the GI50 [50] of the same molecule?
Its GI50 is > 100 µM (inactive).

What about the GI50 [51] of the same molecule?
The GI50 was > 100 µM (inactive).

What about the GI50 [52] of the same molecule?
Its GI50 is 35.8 µM (inactive).

What about the GI50 [53] of the same molecule?
The GI50 was > 100 µM (inactive).

And the GI50 [54]?
Its GI50 is > 100 µM (inactive).

What about the GI50 [55] of the same molecule?
Its GI50 is > 100 µM (inactive).

And the GI50 [56]?
Its GI50 is > 100 µM (inactive).

Which results are given for `C/C(CN1C(=O)c2ccccc2C1=O)=N\NS(=O)(=O)c1ccccc1`?
GI50 [1]: > 100 µM (inactive); GI50 [2]: > 100 µM (inactive); GI50 [3]: > 100 µM (inactive); GI50 [4]: > 100 µM (inactive); GI50 [5]: > 100 µM (inactive); GI50 [6]: > 100 µM (inactive); GI50 [7]: > 100 µM (inactive); GI50 [8]: > 100 µM (inactive); GI50 [9]: > 100 µM; GI50 [10]: > 100 µM (inactive); GI50 [11]: > 100 µM (inactive); GI50 [12]: > 100 µM (inactive); GI50 [13]: > 100 µM (inactive); GI50 [14]: > 100 µM (inactive); GI50 [15]: > 100 µM (inactive); GI50 [16]: > 100 µM (inactive); GI50 [17]: > 100 µM (inactive); GI50 [18]: > 100 µM (inactive); GI50 [19]: > 100 µM (inactive); GI50 [20]: > 100 µM (inactive); GI50 [21]: > 100 µM (inactive); GI50 [22]: > 100 µM (inactive); GI50 [23]: > 100 µM (inactive); GI50 [25]: > 100 µM (inactive); GI50 [26]: > 100 µM (inactive); GI50 [27]: > 100 µM (inactive); GI50 [28]: > 100 µM (inactive); GI50 [29]: > 100 µM (inactive); GI50 [30]: > 100 µM (inactive); GI50 [31]: > 100 µM (inactive); GI50 [32]: > 100 µM (inactive); GI50 [33]: > 100 µM (inactive); GI50 [34]: > 100 µM (inactive); GI50 [35]: > 100 µM (inactive); GI50 [36]: > 100 µM (inactive); GI50 [37]: > 100 µM (inactive); GI50 [38]: > 100 µM (inactive); GI50 [57]: > 100 µM (inactive); GI50 [58]: > 100 µM (inactive); GI50 [40]: > 100 µM (inactive); GI50 [41]: > 100 µM (inactive); GI50 [42]: > 100 µM (inactive); GI50 [43]: > 100 µM (inactive); GI50 [44]: > 100 µM (inactive); GI50 [45]: > 100 µM (inactive); GI50 [46]: > 100 µM (inactive); GI50 [47]: > 100 µM (inactive); GI50 [48]: > 100 µM (inactive); GI50 [49]: > 100 µM (inactive); GI50 [50]: > 100 µM (inactive); GI50 [51]: > 100 µM (inactive); GI50 [52]: > 100 µM (inactive); GI50 [53]: > 100 µM (inactive); GI50 [54]: > 100 µM (inactive); GI50 [55]: > 100 µM (inactive); GI50 [56]: > 100 µM (inactive)
